Assay results reported in patent US20250074890A1, “CYANOPYRIDINE AND CYANOPYRIMIDINE BCL6 DEGRADERS” (DANA-FARBER CANCER INSTITUTE, INC., priority 2021, published 2025).

Target: T1, BCL6 (Homo sapiens, UniProt P41182)
T1 construct: Endogenous BCL6 was tagged with the 11-amino acid SmBiT through CRISPR/Cas9 gene editing; endogenous in cells; host or cells: Su-DHL-4 (CRISPR/Cas9 knock-in, single cell clone)
Test: HiBiT cellular degradation assay in Su-DHL-4 cells
Format: cell-based
Settings: concentration to reach 50% degradation of endogenous SmBiT-tagged BCL6, 24 hours of compound treatment
Description: DC50 (concentration to reach 50% degradation) values were determined from a cellular degradation assay (HiBiT, Promega™) in Su-DHL-4 cells (Table 1). Endogenous BCL6 was tagged with the 11-amino acid SmBiT through CRISPR/Cas9 gene editing and single cell clone selection. After 24 hours of compound treatment, cells were lysed and incubated with LgBiT protein to reconstitute intact nanoluciferase. Substrate was then added and relative luciferase units were measured. Degradation levels for each treatment were taken as a percentage compared to the control, 100% DMSO (Prism).

DC50 [nM]	Compound
30	C[C@H]1C[C@@H](N)CN(c2nc(Nc3ccc4c(c3)c3c(c(=O)n4C)OCC(F)(F)[C@H](C4CC4)N3)c(Cl)cc2C#N)C1 (single isomer, unassigned) [Compound 24]
71	CNC(=O)COc1cc2cc(Nc3nc(N4C[C@@H](N)C(F)(F)[C@@H](C)C4)c(C#N)cc3Cl)ccc2n(CC2COC2)c1=O (single isomer, unassigned) [Compound 42]
> 400	C[C@H]1CN(c2nc(Nc3ccc4c(c3)n(CCC(C)(C)O)c(=O)n4C)c(Cl)cc2C#N)C[C@@H](N)C1(F)F (single isomer, unassigned) [Compound 49]
> 400	C[C@H]1CN(c2nc(Nc3ccc4c(c3)n(CCC(C)(C)O)c(=O)n4C)c(F)cc2C#N)C[C@@H](O)C1(F)F (single isomer, unassigned) [Compound 83]
6	CNC(=O)COc1cc2cc(Nc3nc(N4C[C@@H](C)C(F)(F)[C@@H](C)C4)c(C#N)cc3Cl)ccc2n(C)c1=O [Compound 2, 2-((6-((3-Chloro-5-cyano-6-((3S,5R)-4,4-difluoro-3,5-dimethylpiperidin-1-yl)pyridin-2-yl)amino)-1-methyl-2-oxo-1,2-dihydroquinolin-3-yl)oxy)-N-methylacetamide]
3	CNC(=O)COc1cc2cc(Nc3ncc(C#N)c(N4C[C@H](CCO)C(F)(F)[C@H](C)C4)n3)ccc2n(C)c1=O [Compound 3, 2-((6-((5-Cyano-4-((3S,5R)-4,4-difluoro-3-(2-hydroxyethyl)-5-methylpiperidin-1-yl)pyrimidin-2-yl)amino)-1-methyl-2-oxo-1,2-dihydroquinolin-3-yl)oxy)-N-methylacetamide]
13	CNC(=O)COc1cc2cc(Nc3nc(N4C[C@@H](C)C(F)(F)[C@@H](C)C4)c(C#N)cc3Cl)ccc2n(CC2CCO2)c1=O (stereo partly drawn) [Compound 6, 2-((6-((3-Chloro-5-cyano-6-((3R,5S)-4,4-difluoro-3,5-dimethylpiperidin-1-yl)pyridin-2-yl)amino)-1-(oxetan-2-ylmethyl)-2-oxo-1,2-dihydroquinolin-3-yl)oxy)-N-methylacetamide]
5	CNC(=O)COc1cc2cc(Nc3nc(N4C[C@@H](C)C(F)(F)[C@@H](C)C4)c(C#N)cc3Cl)ccc2n(CC2COC2)c1=O [Compound 7, 2-((6-((3-chloro-5-cyano-6-((3R,5S)-4,4-difluoro-3,5-dimethylpiperidin-1-yl)pyridin-2-yl)amino)-1-(oxetan-3-ylmethyl)-2-oxo-1,2-dihydroquinolin-3-yl)oxy)-N-methylacetamide]
> 400	C[C@@H]1CN(c2nc(Nc3ccc4c(c3)cc(OCC3(C)COC3)c(=O)n4C)c(Cl)cc2C#N)C[C@H](C)C1(F)F [Compound 9, 5-Chloro-2-((3R,5S)-4,4-difluoro-3,5-dimethylpiperidin-1-yl)-6-((1-methyl-3-((3-methyloxetan-3-yl)methoxy)-2-oxo-1,2-dihydroquinolin-6-yl)amino)nicotinonitrile]
2	CNC(=O)COc1cc2cc(Nc3nc(N4C[C@@H](C)C(F)(F)[C@@H](C)C4)c(C#N)cc3Cl)ccc2n(CCN(C)C)c1=O [Compound 11, 2-((6-((3-Chloro-5-cyano-6-((3R,5S)-4,4-difluoro-3,5-dimethylpiperidin-1-yl)pyridin-2-yl)amino)-1-(2-(dimethylamino)ethyl)-2-oxo-1,2-dihydroquinolin-3-yl)oxy)-N-methylacetamide]
5	CNC(=O)COc1cc2cc(Nc3nc(N4C[C@@H](C)C(F)(F)[C@@H](C)C4)c(C#N)cc3Cl)ccc2n(CCCO)c1=O [Compound 18, 2-((6-((3-Chloro-5-cyano-6-((3R,5S)-4,4-difluoro-3,5-dimethylpiperidin-1-yl)pyridin-2-yl)amino)-1-(3-hydroxypropyl)-2-oxo-1,2-dihydroquinolin-3-yl)oxy)-N-methylacetamide]
> 400	C[C@@H]1C[C@H](N)CN(c2nc(Nc3ccc4c(c3)c3c(c(=O)n4C)OCC(F)(F)[C@H](C4CC4)N3)c(Cl)cc2C#N)C1 [Compound 25, 2-((3S,5R)-3-Amino-5-methylpiperidin-1-yl)-5-chloro-6-(((S)-2-cyclopropyl-3,3-difluoro-7-methyl-6-oxo-1,2,3,4,6,7-hexahydro-[1,4]oxazepino[2,3-c]quinolin-10-yl)amino)nicotinonitrile]
> 400	C[C@H]1C[C@@H](N)CN(c2nc(Nc3ccc4c(c3)n(CCC(C)(C)O)c(=O)n4C)c(Cl)cc2C#N)C1 [Compound 35, 2-((3R,5S)-3-Amino-5-methylpiperidin-1-yl)-5-chloro-6-((3-(3-hydroxy-3-methylbutyl)-1-methyl-2-oxo-2,3-dihydro-1H-benzo[d]imidazol-5-yl)amino)nicotinonitrile]
> 400	C[C@@H]1C[C@H](N)CN(c2nc(Nc3ccc4c(c3)n(CCC(C)(C)O)c(=O)n4C)c(Cl)cc2C#N)C1 [Compound 36, 2-((3S,5R)-3-amino-5-methylpiperidin-1-yl)-5-chloro-6-((3-(3-hydroxy-3-methylbutyl)-1-methyl-2-oxo-2,3-dihydro-1H-benzo[d]imidazol-5-yl)amino)nicotinonitrile]
62	C[C@@H]1CN(c2nc(Nc3ccc4c(c3)n(CCC(C)(C)O)c(=O)n4CC3COC3)c(Cl)cc2C#N)C[C@H](N)C1(F)F [Compound 37, 2-((3S,5R)-3-Amino-4,4-difluoro-5-methylpiperidin-1-yl)-5-chloro-6-((3-(3-hydroxy-3-methylbutyl)-1-(oxetan-3-ylmethyl)-2-oxo-2,3-dihydro-1H-benzo[d]imidazol-5-yl)amino)nicotinonitrile]
> 400	C[C@H]1CN(c2nc(Nc3ccc4c(c3)n(CCC(C)(C)O)c(=O)n4CC3COC3)c(Cl)cc2C#N)C[C@@H](N)C1(F)F [Compound 38, 2-((3R,5S)-3-Amino-4,4-difluoro-5-methylpiperidin-1-yl)-5-chloro-6-((3-(3-hydroxy-3-methylbutyl)-1-(oxetan-3-ylmethyl)-2-oxo-2,3-dihydro-1H-benzo[d]imidazol-5-yl)amino)nicotinonitrile]
41	CNC(=O)COc1cc2cc(Nc3nc(N4C[C@@H](C)C[C@@H](N)C4)c(C#N)cc3Cl)ccc2n(C)c1=O [Compound 39, 2-((6-((6-((3R,5S)-3-Amino-5-methylpiperidin-1-yl)-3-chloro-5-cyanopyridin-2-yl)amino)-1-methyl-2-oxo-1,2-dihydroquinolin-3-yl)oxy)-N-methylacetamide]
> 400	CNC(=O)COc1cc2cc(Nc3nc(N4C[C@H](C)C[C@H](N)C4)c(C#N)cc3Cl)ccc2n(C)c1=O [Compound 40, 2-((6-((6-((3S,5R)-3-Amino-5-methylpiperidin-1-yl)-3-chloro-5-cyanopyridin-2-yl)amino)-1-methyl-2-oxo-1,2-dihydroquinolin-3-yl)oxy)-N-methylacetamide]
10	CNC(=O)COc1cc2cc(Nc3nc(N4C[C@@H](C)C(F)(F)[C@@H](N)C4)c(C#N)cc3Cl)ccc2n(CC2COC2)c1=O [Compound 41, 2-((6-((6-((3S,5R)-3-Amino-4,4-difluoro-5-methylpiperidin-1-yl)-3-chloro-5-cyanopyridin-2-yl)amino)-1-(oxetan-3-ylmethyl)-2-oxo-1,2-dihydroquinolin-3-yl)oxy)-N-methylacetamide]
10	CNC(=O)COc1cc2cc(Nc3nc(N4C[C@@H](C)C(F)(F)[C@@H](N)C4)c(C#N)cc3Cl)ccc2n(C)c1=O [Compound 43, 2-((6-((6-((3S,5R)-3-Amino-4,4-difluoro-5-methylpiperidin-1-yl)-3-chloro-5-cyanopyridin-2-yl)amino)-1-methyl-2-oxo-1,2-dihydroquinolin-3-yl)oxy)-N-methylacetamide]
70	CNC(=O)COc1cc2cc(Nc3nc(N4C[C@@H](N)C(F)(F)[C@@H](C)C4)c(C#N)cc3Cl)ccc2n(C)c1=O [Compound 44, 2-((6-((6-((3R,5S)-3-amino-4,4-difluoro-5-methylpiperidin-1-yl)-3-chloro-5-cyanopyridin-2-yl)amino)-1-methyl-2-oxo-1,2-dihydroquinolin-3-yl)oxy)-N-methylacetamide]
3	CNC(=O)COc1cc2cc(Nc3nc(N4C[C@@H](C)[C@@H](F)[C@@H](C)C4)c(C#N)cc3Cl)ccc2n(C)c1=O [Compound 45, 2-((6-((3-Chloro-5-cyano-6-((3R,4S,5S)-4-fluoro-3,5-dimethylpiperidin-1-yl)pyridin-2-yl)amino)-1-methyl-2-oxo-1,2-dihydroquinolin-3-yl)oxy)-N-methylacetamide]
6	CNC(=O)COc1cc2cc(Nc3nc(N4C[C@@H](C)[C@@H](O)[C@@H](C)C4)c(C#N)cc3Cl)ccc2n(C)c1=O [Compound 46, 2-((6-((3-Chloro-5-cyano-6-((3R,4s,5S)-4-hydroxy-3,5-dimethylpiperidin-1-yl)pyridin-2-yl)amino)-1-methyl-2-oxo-1,2-dihydroquinolin-3-yl)oxy)-N-methylacetamide]
11	CNC(=O)COc1cc2cc(Nc3nc(N4C[C@@H](C)[C@H](O)[C@@H](C)C4)c(C#N)cc3Cl)ccc2n(C)c1=O [Compound 47, 2-((6-((3-Chloro-5-cyano-6-((3R,4r,5S)-4-hydroxy-3,5-dimethylpiperidin-1-yl)pyridin-2-yl)amino)-1-methyl-2-oxo-1,2-dihydroquinolin-3-yl)oxy)-N-methylacetamide]
31	C[C@@H]1CN(c2nc(Nc3ccc4c(c3)n(CCC(C)(C)O)c(=O)n4C)c(Cl)cc2C#N)C[C@H](N)C1(F)F [Compound 48, 2-((3S,5R)-3-Amino-4,4-difluoro-5-methylpiperidin-1-yl)-5-chloro-6-((3-(3-hydroxy-3-methylbutyl)-1-methyl-2-oxo-2,3-dihydro-1H-benzo[d]imidazol-5-yl)amino)nicotinonitrile]
